Laboratory results reported in patent US20240293586A1, “RA[…] AND USE THEREOF” (OSAKA UNIVERSITY, priority 2021, published 2024).

Key:
Format in all cases: in vivo, SCID mice
[1] = tested on: human prostate cancer cells (LNCaP); assay: Therapeutic test in human prostate cancer-transplanted mice (Experimental Example 4); conditions: 0.4 MBq or 1 MBq, n=3; kept for 3 weeks; FIGS. 12 to 14
Experimental: SCID mice (9 weeks old, male, n=5) were subcutaneously transplanted with human prostate cancer cells (LNCaP, 0.5×10^7 cells/mouse), and then kept for one month. The tumor-transplanted mice were divided into Compound 3, 7 or 8 administration group (0.4 MBq or 1 MBq, n=3) and control group (CTL, n=2 or 3), and kept for 3 weeks thereafter, and changes in tumor size and body weight were measured.

[2] = tested on: human prostate cancer cells (LNCaP); assay: Therapeutic test in human prostate cancer-transplanted mice with Compound 3 (tumor size); conditions: 0.5 MBq, FIG. 6
Experimental: (§1) SCID mice (9 weeks old, male, n=5) were subcutaneously transplanted with human prostate cancer cells (LNCaP, 0.5×10^7 cells/mouse), and then kept for one month. The mice were divided into Compound 3 administration group (n=3) and control group (n=2). For the Compound 3 administration group, Compound 3 (0.43±0.01 MBq) was administered via the tail vein. For the control group, physiological saline was administered. The mice in the Compound 3 administration group (n=3) were anesthetized with isoflurane inhalation at 3 and 24 hours after administration, and the planar images were taken using a SPECT camera (E-cam, Siemens) (matrix size: 256×256, pixel size 1.2×1.2 mm, collimator: LEAP, energy window: 79 keV±20%, image acquisition time 10 min or 20 min).
(§2) The mice in the Compound 3 administration group (0.5 MBq, n=3) and control group (CTL, n=2) of Experimental Example 1 were kept for 3 weeks thereafter, and changes in tumor size were measured. The tumor size was standardized by size at the time of drug administration, and the relative ratio (fold change) to subsequent tumor size was calculated. The tumor size in the control group increased over time, and it increased about seven times after three weeks. […] The mice were dissected and blood biochemical tests were performed.

[3] = Blood biochemical tests and histopathological examination after the therapeutic test; conditions: 3 weeks after 0.5 MBq
Experimental: as §2

[4] = tested on: human prostate cancer cells (LNCaP); assay: Imaging of human prostate cancer-transplanted mice (planar images, SPECT camera); conditions: FIG. 5; for accumulation at the tumor-transplanted site: 0.43±0.01 MBq via the tail vein
Experimental: as §1

[5] = tested on: human prostate cancer cells (LNCaP); assay: Biodistribution test in human prostate cancer-transplanted mice or normal mice; conditions: approximately 0.1 MBq, 3 and 24 hours after administration; for accumulation in the tumors (radioactivity distribution % ID, % ID/g): tumor-transplanted mice, FIGS. 8, 10; for accumulation in the kidney (radioactivity distribution % ID, % ID/g): tumor-transplanted or normal mice, FIGS. 7 to 11
Experimental: SCID mice (9 weeks old, male, n=5) were subcutaneously transplanted with human prostate cancer cells (LNCaP, 0.5×10^7 cells/mouse), and then kept for one month. Compound 3, 4, 7 or 8 (approximately 0.1 MBq) was administered to the tumor-transplanted mice or normal mice, and the mice were dissection under isoflurane inhalation anesthesia at 3 and 24 hours after administration to collect various organs including blood, urine and tumors. The radioactivity distribution (% ID) and radioactivity distribution per 1 g of organ weight (% ID/g) were measured for each organ.

[6] = planar imaging at 3 and 24 hours after administration

| SMILES | change in tumor size versus control group [1] | tumor size, relative ratio (fold change) to size at the time of drug administration ([2]; after three weeks, n=3, control increased about seven times) [times] | tumor size change ([2]; immediately after administration) | histopathological examination of kidneys, salivary glands and thyroid glands [3] | renal function marker values (blood biochemical tests) versus control group [3] | accumulation at the tumor-transplanted site ([4]; 3 hours after administration) | accumulation at the tumor-transplanted site ([4]; 24 hours after administration) | accumulation in the kidneys [4, 6] | nonspecific accumulation in other organs [4, 6] | accumulation in the tumors (radioactivity distribution % ID, % ID/g) [5] | accumulation in the kidney (radioactivity distribution % ID, % ID/g) [5] |
| --- | --- | --- | --- | --- | --- | --- | --- | --- | --- | --- | --- |
| O=C(O)CC[C@H](NC(=O)N[C@@H](CCCCNC(=O)[C@@H](Cc1ccc2ccccc2c1)NC(=O)c1ccc(CNC(=O)[C@@H](CCC(=O)O)NC(=O)[C@@H](CCC(=O)O)NC(=O)Cc2ccc([211At])cc2)cc1)C(=O)O)C(=O)O [Compound 3] | tumor growth inhibition was observed | 0.27 | tendency to shrink | no particular abnormal findings | no significant differences | accumulated at the tumor-transplanted site | the accumulation continued | physiological accumulation in the kidneys | no nonspecific accumulation in other organs was observed | significantly accumulated in the tumors | accumulate physiologically in the kidney |
| O=C(O)CC[C@H](NC(=O)N[C@@H](CCCCNC(=O)[C@H](Cc1ccc2ccccc2c1)NC(=O)c1ccc(CNC(=O)[C@H](CCC(=O)O)NC(=O)[C@H](CCC(=O)O)NC(=O)Cc2ccc([211At])cc2)cc1)C(=O)O)C(=O)O [Compound 4] | – | – | – | – | – | – | – | – | – | – | accumulate physiologically in the kidney |
| O=C(O)CC[C@H](NC(=O)N[C@@H](CCCCNC(=O)[C@@H](Cc1ccc2ccccc2c1)NC(=O)c1ccc(CNC(=O)CCC(=O)NCCCC[C@H](NC(=O)CNC(=O)Cc2ccc([211At])cc2)C(=O)O)cc1)C(=O)O)C(=O)O [Compound 7] | tumor growth inhibition was observed | – | – | – | – | – | – | – | – | significantly accumulated in the tumors | accumulate physiologically in the kidney |
| O=C(O)CC[C@H](NC(=O)N[C@@H](CCCCNC(=O)[C@@H](Cc1ccc2ccccc2c1)NC(=O)c1ccc(CNC(=O)[C@@H](CCC(=O)O)NC(=O)[C@@H](CCC(=O)O)NC(=O)CCC(=O)NCCCC[C@H](NC(=O)CNC(=O)Cc2ccc([211At])cc2)C(=O)O)cc1)C(=O)O)C(=O)O [Compound 8] | tumor growth inhibition was observed | – | – | – | – | – | – | – | – | – | accumulate physiologically in the kidney |
